Experiment: xn = mol fraction of the nth substance listed
Conditions: 100 kPa

O + C[N+](C)(C)CCO.NCC(=O)[O-]
x2 = 0
Conditions | speed of sound [m/s] | viscosity [mPa·s]
298.15 K | – | 0.89
303.15 K | – | 0.8
308.15 K | – | 0.72
313.15 K | 1529 | 0.66
318.15 K | – | 0.61
323.15 K | – | 0.56

C[N+](C)(C)CCO.NCC(=O)[O-] + O
Conditions | speed of sound [m/s] | viscosity [mPa·s]
298.15 K, x1 = 0.1 | 1927.4 | 5.83
298.15 K, x1 = 0.2004 | 2082.9 | 23.73
298.15 K, x1 = 0.3 | 2134.5 | 56.96
298.15 K, x1 = 0.3996 | 2152.4 | 99
298.15 K, x1 = 0.5004 | 2156.2 | 154.4
298.15 K, x1 = 0.6004 | 2156 | 216
298.15 K, x1 = 0.6966 | 2153.1 | 274
298.15 K, x1 = 0.8014 | 2151.8 | 348
298.15 K, x1 = 0.8996 | 2146 | 420
303.15 K, x1 = 0.1 | 1922.7 | 5.01
303.15 K, x1 = 0.2004 | 2073.3 | 19.44
303.15 K, x1 = 0.3 | 2122.9 | 45.62
303.15 K, x1 = 0.3996 | 2140.5 | 77.3
303.15 K, x1 = 0.5004 | 2144.8 | 115.5
303.15 K, x1 = 0.6004 | 2143.4 | 160.8
303.15 K, x1 = 0.8014 | 2136.2 | 257
303.15 K, x1 = 0.8996 | 2133.2 | 306
303.15 K, x1 = 1 | 2129.1 | 363
308.15 K, x1 = 0.2004 | 2063.4 | 16.15
308.15 K, x1 = 0.3 | 2111.5 | 37.06
308.15 K, x1 = 0.5004 | 2132.2 | 89.6
308.15 K, x1 = 0.6004 | 2130.3 | 122.8
308.15 K, x1 = 0.6966 | 2127.8 | 153.5
308.15 K, x1 = 0.8014 | 2125.2 | 191.6
308.15 K, x1 = 0.8996 | 2120.1 | 227
308.15 K, x1 = 1 | 2116 | 264
313.15 K, x1 = 0.1 | 1911.9 | 3.8
313.15 K, x1 = 0.2004 | 2053.2 | 13.57
313.15 K, x1 = 0.3 | 2099.8 | 30.58
313.15 K, x1 = 0.6004 | 2118 | 95.3
313.15 K, x1 = 0.6966 | 2115 | 118.6
313.15 K, x1 = 0.8014 | 2112.1 | 147.4
313.15 K, x1 = 0.8996 | 2107.2 | 172.7
313.15 K, x1 = 1 | 2103.5 | 201
318.15 K, x1 = 0.2004 | 2043 | 11.51
318.15 K, x1 = 0.6004 | 2105.6 | 75.6
318.15 K, x1 = 0.6966 | 2102.3 | 92.7
318.15 K, x1 = 0.8014 | 2098.7 | 114.4
318.15 K, x1 = 0.8996 | 2094.2 | 134.5
323.15 K, x1 = 0.1 | 1899.4 | 2.97
323.15 K, x1 = 0.2004 | 2032.2 | 9.83
323.15 K, x1 = 0.3 | 2076.6 | 21.79
323.15 K, x1 = 0.3996 | 2091.4 | 34.59
323.15 K, x1 = 0.5004 | 2094.9 | 46.6
323.15 K, x1 = 0.6004 | 2092.8 | 60.8
323.15 K, x1 = 0.6966 | 2089.9 | 74.1
323.15 K, x1 = 0.8014 | 2086.3 | 91
323.15 K, x1 = 0.8996 | 2081.8 | 105.2
323.15 K, x1 = 1 | 2078.3 | 121.1

From a compilation of properties of binary mixtures (doi:10.1016/j.molliq.2022.120022)
